Assay results as given in article doi:10.1101/2022.01.25.477728v2 (biorxiv, 2022).

These compounds were tested against T1, TcBDF2 / TcBD2 (TcBDF2HA) (Trypanosoma cruzi, UniProt A0A2V2V5V1) (assay: intrinsic tryptophan fluorescence quenching).
T1 sequence (A0A2V2V5V1 2-119): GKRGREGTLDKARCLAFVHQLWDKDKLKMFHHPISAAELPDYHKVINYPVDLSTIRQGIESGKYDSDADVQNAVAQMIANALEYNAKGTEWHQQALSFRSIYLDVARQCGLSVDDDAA
Assay type: binding

SMILES	Kd [µM]
COc1cc2c(cc1-c1c(C)noc1C)ncc1[nH]c(=O)n([C@H](C)c3ccccn3)c12 [iBET-151]	~14
CCOC(=O)Nc1cc(-c2ccc(C)c(NS(C)(=O)=O)c2)nn2c(C)nnc12 [Bromosporine]	~14
COc1cc(OC)c2c(=O)[nH]c(-c3cc(C)c(OCCO)c(C)c3)nc2c1 [RVX-208]	> 150
